From the supplement of paper PMC10307832

Key:
Experiment in all cases: relative viability (nuclei count vs DMSO), 5 days (fraction); higher = more cells survive
201T = test system: 201T
Procedure, shortened: (§1)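 Medians of duplicate plates are given as relative viability. That measure is the nuclei count in treated wells divided by the count in vehicle wells. Counts were taken on 4× images of lung cancer cell lines in 1536-well plates, 5 days after pin-tool dosing the day after seeding with one drug alone or a fixed anchor-drug dose plus five library-drug doses (not always all listed) in √10 steps.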

A-427 = test system: A-427
Procedure, shortened: as §1

BEN = test system: BEN
Procedure, shortened: as §1

COR-L23 = test system: COR-L23
Procedure, shortened: as §1

EKVX = test system: EKVX
Procedure, shortened: as §1

HARA = test system: HARA
Procedure, shortened: as §1

HCC-15 = test system: HCC-15
Procedure, shortened: as §1

HCC-44 = test system: HCC-44
Procedure, shortened: as §1

HCC-827 = test system: HCC-827
Procedure, shortened: as §1

NCI-H1437 = test system: NCI-H1437
Procedure, shortened: as §1

NCI-H1650 = test system: NCI-H1650
Procedure, shortened: as §1

NCI-H1666 = test system: NCI-H1666
Procedure, shortened: as §1

NCI-H1975 = test system: NCI-H1975
Procedure, shortened: as §1

NCI-H2342 = test system: NCI-H2342
Procedure, shortened: as §1

NCI-H23 = test system: NCI-H23
Procedure, shortened: as §1

NCI-H358 = test system: NCI-H358
Procedure, shortened: as §1

NCI-H441 = test system: NCI-H441
Procedure, shortened: as §1

NCI-H596 = test system: NCI-H596
Procedure, shortened: as §1

NCI-H650 = test system: NCI-H650
Procedure, shortened: as §1

NCI-H838 = test system: NCI-H838
Procedure, shortened: as §1

SK-MES-1 = test system: SK-MES-1
Procedure, shortened: as §1

SW 900 = test system: SW 900
Procedure, shortened: as §1

Compound: O=c1cc(-c2cccc3c2Sc2ccccc2S3)oc(N2CCOCC2)c1 + O=C(CCCCCCC(=O)Nc1ccccc1)NO [Vorinostat] (partner 1 µM)
- relative viability (201T; first compound 0.08 µM): 0.919
- relative viability (201T; first compound 0.253 µM): 1.05
- relative viability (201T; first compound 0.8 µM): 0.976
- relative viability (201T; first compound 2.53 µM): 0.912
- relative viability (201T; first compound 8 µM): 0.884
- relative viability (A-427; first compound 0.08 µM): 0.863
- relative viability (A-427; first compound 0.253 µM): 0.931
- relative viability (A-427; first compound 0.8 µM): 0.897
- relative viability (A-427; first compound 2.53 µM): 0.834
- relative viability (A-427; first compound 8 µM): 0.829
- relative viability (BEN; first compound 0.08 µM): 0.521
- relative viability (BEN; first compound 0.253 µM): 0.645
- relative viability (BEN; first compound 0.8 µM): 0.594
- relative viability (BEN; first compound 2.53 µM): 0.59
- relative viability (BEN; first compound 8 µM): 0.629
- relative viability (COR-L23; first compound 0.08 µM): 0.472
- relative viability (COR-L23; first compound 0.253 µM): 0.457
- relative viability (COR-L23; first compound 0.8 µM): 0.397
- relative viability (COR-L23; first compound 2.53 µM): 0.442
- relative viability (COR-L23; first compound 8 µM): 0.446
- relative viability (EKVX; first compound 0.08 µM): 0.862
- relative viability (EKVX; first compound 0.253 µM): 0.839
- relative viability (EKVX; first compound 0.8 µM): 0.601
- relative viability (EKVX; first compound 2.53 µM): 0.675
- relative viability (EKVX; first compound 8 µM): 0.569
- relative viability (HARA; first compound 0.08 µM): 0.538
- relative viability (HARA; first compound 0.253 µM): 0.59
- relative viability (HARA; first compound 0.8 µM): 0.442
- relative viability (HARA; first compound 8 µM): 0.36
- relative viability (HCC-15; first compound 0.08 µM): 0.906
- relative viability (HCC-15; first compound 0.253 µM): 0.952
- relative viability (HCC-15; first compound 0.8 µM): 0.82
- relative viability (HCC-15; first compound 2.53 µM): 0.722
- relative viability (HCC-15; first compound 8 µM): 0.808
- relative viability (HCC-44; first compound 0.08 µM): 1.13
- relative viability (HCC-44; first compound 0.253 µM): 1.05
- relative viability (HCC-44; first compound 0.8 µM): 1.17
- relative viability (HCC-44; first compound 2.53 µM): 1.05
- relative viability (HCC-44; first compound 8 µM): 1.08
- relative viability (HCC-827; first compound 0.08 µM): 0.768
- relative viability (HCC-827; first compound 0.253 µM): 0.945
- relative viability (HCC-827; first compound 0.8 µM): 0.77
- relative viability (HCC-827; first compound 2.53 µM): 0.476
- relative viability (HCC-827; first compound 8 µM): 0.923
- relative viability (NCI-H1437; first compound 0.08 µM): 0.857
- relative viability (NCI-H1437; first compound 0.253 µM): 0.9
- relative viability (NCI-H1437; first compound 0.8 µM): 0.847
- relative viability (NCI-H1437; first compound 2.53 µM): 0.761
- relative viability (NCI-H1437; first compound 8 µM): 0.857
- relative viability (NCI-H1650; first compound 0.08 µM): 0.535
- relative viability (NCI-H1650; first compound 0.253 µM): 0.643
- relative viability (NCI-H1650; first compound 0.8 µM): 0.602
- relative viability (NCI-H1650; first compound 2.53 µM): 0.502
- relative viability (NCI-H1650; first compound 8 µM): 0.556
- relative viability (NCI-H1666; first compound 0.08 µM): 1
- relative viability (NCI-H1666; first compound 0.253 µM): 1.15
- relative viability (NCI-H1666; first compound 0.8 µM): 0.963
- relative viability (NCI-H1666; first compound 2.53 µM): 1.02
- relative viability (NCI-H1666; first compound 8 µM): 1.06
- relative viability (NCI-H1975; first compound 0.08 µM): 0.687
- relative viability (NCI-H1975; first compound 0.253 µM): 0.827
- relative viability (NCI-H1975; first compound 0.8 µM): 0.707
- relative viability (NCI-H1975; first compound 2.53 µM): 0.671
- relative viability (NCI-H1975; first compound 8 µM): 0.749
- relative viability (NCI-H2342; first compound 0.08 µM): 0.752
- relative viability (NCI-H2342; first compound 0.253 µM): 0.831
- relative viability (NCI-H2342; first compound 0.8 µM): 0.8
- relative viability (NCI-H2342; first compound 2.53 µM): 0.691
- relative viability (NCI-H2342; first compound 8 µM): 0.699
- relative viability (NCI-H23; first compound 0.08 µM): 0.477
- relative viability (NCI-H23; first compound 0.253 µM): 0.593
- relative viability (NCI-H23; first compound 0.8 µM): 0.669
- relative viability (NCI-H23; first compound 2.53 µM): 0.543
- relative viability (NCI-H23; first compound 8 µM): 0.516
- relative viability (NCI-H358; first compound 0.08 µM): 0.725
- relative viability (NCI-H358; first compound 0.253 µM): 0.651
- relative viability (NCI-H358; first compound 0.8 µM): 0.705
- relative viability (NCI-H358; first compound 2.53 µM): 0.71
- relative viability (NCI-H358; first compound 8 µM): 0.632
- relative viability (NCI-H441; first compound 0.08 µM): 0.921
- relative viability (NCI-H441; first compound 0.253 µM): 1.01
- relative viability (NCI-H441; first compound 0.8 µM): 1.14
- relative viability (NCI-H441; first compound 2.53 µM): 0.838
- relative viability (NCI-H441; first compound 8 µM): 0.935
- relative viability (NCI-H596; first compound 0.08 µM): 0.51
- relative viability (NCI-H596; first compound 0.253 µM): 0.749
- relative viability (NCI-H596; first compound 0.8 µM): 0.585
- relative viability (NCI-H596; first compound 2.53 µM): 0.575
- relative viability (NCI-H596; first compound 8 µM): 0.717
- relative viability (NCI-H650; first compound 0.08 µM): 0.473
- relative viability (NCI-H650; first compound 0.253 µM): 0.478
- relative viability (NCI-H650; first compound 0.8 µM): 0.393
- relative viability (NCI-H650; first compound 2.53 µM): 0.345
- relative viability (NCI-H650; first compound 8 µM): 0.458
- relative viability (NCI-H838; first compound 0.08 µM): 0.746
- relative viability (NCI-H838; first compound 0.253 µM): 0.739
- relative viability (NCI-H838; first compound 0.8 µM): 0.831
- relative viability (NCI-H838; first compound 2.53 µM): 0.636
- relative viability (NCI-H838; first compound 8 µM): 0.535
- relative viability (SK-MES-1; first compound 0.08 µM): 1.15
- relative viability (SK-MES-1; first compound 0.253 µM): 1.23
- relative viability (SK-MES-1; first compound 0.8 µM): 1.01
- relative viability (SK-MES-1; first compound 2.53 µM): 0.975
- relative viability (SK-MES-1; first compound 8 µM): 0.939
- relative viability (SW 900; first compound 0.253 µM): 0.529
- relative viability (SW 900; first compound 0.8 µM): 0.493
- relative viability (SW 900; first compound 2.53 µM): 0.427
- relative viability (SW 900; first compound 8 µM): 0.393
